Measured values: patent publication US8546421B1, “Oncogenic-RAS-signal dependent lethal compounds” (The Trustees of Columbia University in the City of New York, priority 2007, dated 2013)

What was measured:
UACC-62 = assay: NCI60 anti-cancer screening
OVCAR-3 = settings: Ovarian Cancer
M14 = assay: NCI60 anti-cancer screening
CCRF-CEM = assay: NCI60 anti-cancer screening
KM12 = assay: NCI60 anti-cancer screening
[1] = system: BJ-derived cell lines (BJ-TERT/LT/ST/RAS^V12 cells); assay: Vi-Cell analysis (trypan blue exclusion); format: cell-based, human; settings: 24 hours
Experimental: 200,000 cells were seeded in 6-well plates and treated with the indicated amount of 2-fold dilution series concentration of a candidate compound in 2 mL BJ growth medium. After 24 hours, cells were released with trypsin/EDTA, harvested in 1.1 mL growth medium, and transferred to a Vi-Cell (Beckman Coulter) disposable cup. After, trypan blue staining, 100 images of sample were taken and analysis of the images was carried out automatically by a Vi-Cell cell viability analyzer (Beckman Coulter).

TK-10 = assay: NCI60 anti-cancer screening
SF-539 = assay: NCI60 anti-cancer screening
NCI-H23 = assay: NCI60 anti-cancer screening
[2] = system: A549, Calu-1, PaCa, and HCT116 cells; assay: Alamar blue assay in KRAS-mutation-harboring cancer cells; format: cell-based, human
Experimental: A549, Calu-1, HCT116 and MIA PaCa-2 cell lines have an oncogenic mutation in the KRAS gene. Compounds which tested positive in the oncogenic HRAS primary screen were also tested for their selectivity against oncogenic KRAS which is more commonly mutated in human cancers.

UACC-257 = assay: NCI60 anti-cancer screening
SK-MEL-5 = assay: NCI60 anti-cancer screening
NCI-H522 = assay: NCI60 anti-cancer screening
HT29 = assay: NCI60 anti-cancer screening
RPMI-8226 = assay: NCI60 anti-cancer screening
RXF393 = assay: NCI60 anti-cancer screening
A498 = assay: NCI60 anti-cancer screening
MDA-MB-435 = assay: NCI60 anti-cancer screening
HL-60(TB) = settings: Leukemia
[3] = system: BJ cell system (BJ-TERT, BJ-TERT/LT/ST, BJ-TERT/LT/ST/RAS^V12, DRD cells); assay: Alamar blue potency and selectivity in the engineered BJ cell system; settings: alamar blue
Experimental: Empty “step-daughter plates” were filled with 50 μL DMEM, except for columns 3 and 13, where 100 μL of hit compound solution were cherry-picked from daughter plates. After compound transfer, 2-fold dilution series across columns 3 through 12 and columns 13 through 22 was made by transferring 50 μL of compound solution to the next column successively (10-point dilution series), with extensive mixing. Hit-picking and 2-fold dilution series were carried out using Biomek FX Span-8 module (Beckman Coulter). Assay plates were prepared by seeding 1,000 BJ-TERT, BJ-TERT/LT/ST, and BJ-TERT/LT/ST/RAS^V12 cells per well in 36 μL growth medium. Cells in assay plates were treated with compounds from step-daughter plates by transferring 4 μL. The final concentration of the compound was 5.33 μg/mL to 0.01 μg/mL in this 10-point, 2-fold dilution series. Assay plates were returned to the culture incubator and maintained for 48 hours before adding alamar blue.
Fresh daughter plates were made from the mother plate and cherry-picked hits from the first round, 2-fold dilution series experiment as described above. Assay plates were prepared by seeding 1,000 BJ-TERT, BJ-TERT/LT/ST, BJ-TERT/LT/ST/RAS^V12 or BJ-TERT/p53DD/CDK4/cyclinD1/ST/RAS^V12 (DRD) cells per well in 32 μL growth media. Cells in the assay plates were treated with compounds from the step-daughter plate by transferring 8 μL solution. The final concentration of the compound was 10.66 μg/mL to 0.02 μg/mL in a 10-point, 2-fold dilution series manner. Assay plates were returned to the culture incubator and maintained for 48 hours before adding alamar blue.
Cells were seeded in 384-well assay plates, treated with candidate compounds, and incubated in the culture incubator in 40 μL culture volume per well. […] Plates were incubated further for 16 hours to allow reduction of alamar blue, which results in the generation of red fluorescence. The fluorescence intensity was determined using a Victor 3 plate reader (Perkin Elmer) with a 535 nm excitation filter and a 590 nm emission filter.
In the subsequent two-fold dilution series testing, selectivity was calculated as the ratio of GI50 values in BJ-TERT/LT/ST and BJ-TERT/LT/ST/RAS^V12 cells. […] DRD cells are also derived from BJ primary cells and the effects of mutations in both lines should be similar.

LOX IMVI = assay: NCI60 anti-cancer screening
SK-MEL-28 = assay: NCI60 anti-cancer screening
BT-549 = assay: NCI60 anti-cancer screening
OVCAR-8 = assay: NCI60 anti-cancer screening
MALME-3M = assay: NCI60 anti-cancer screening
MDA-MB-231/ATCC = assay: NCI60 anti-cancer screening
786-0 = assay: NCI60 anti-cancer screening

C=C1CCC2C(C)(C)CCC[C@]2(C)C1CC/C(C)=C\CC/C(C)=N/NC(N)=S (stereo partly drawn) [Compound 36]
GI50 (UACC-62; Homo sapiens, UACC-62): 214 nM
CC50 (UACC-62; Homo sapiens, UACC-62, read-out: LC 50%): 853 nM
GI 100% (UACC-62; UACC-62, Melanoma): 0.427 µM
GI 100% (OVCAR-3): 0.804 µM
GI50 (M14; Homo sapiens, M14): 384 nM
CC50 (M14; Homo sapiens, M14, read-out: LC 50%): 4800 nM
GI 100% (M14; M14, Melanoma): 1.59 µM
GI50 (CCRF-CEM; Homo sapiens): 165 nM
CC50 (CCRF-CEM; Homo sapiens, read-out: LC 50%): 5570 nM
GI 100% (CCRF-CEM; Leukemia): 0.705 µM
GI50 (KM12; Homo sapiens, KM12): 469 nM
CC50 (KM12; Homo sapiens, KM12, read-out: LC 50%): 4470 nM
GI 100% (KM12; KM12, Colon Cancer): 1.8 µM
potency and selectivity by trypan blue exclusion (in words) [1]: confirmed the growth inhibitory potency and selectivity
GI50 (TK-10; Homo sapiens, TK-10): 296 nM
CC50 (TK-10; Homo sapiens, TK-10, read-out: LC 50%): 3470 nM
GI 100% (TK-10; TK-10, Renal Cancer): 1.08 µM
GI50 (SF-539; Homo sapiens, SF-539): 191 nM
CC50 (SF-539; Homo sapiens, SF-539, read-out: LC 50%): 638 nM
GI 100% (SF-539; SF-539, CNS Cancer): 0.349 µM
GI50 (NCI-H23; Homo sapiens, NCI-H23): 440 nM
CC50 (NCI-H23; Homo sapiens, NCI-H23, read-out: LC 50%): 4230 nM
GI 100% (NCI-H23; NCI-H23, Non-small cell lung carcinoma): 1.65 µM
activity in KRAS-mutation-harboring cancer cells (in words) [2]: active
GI50 (UACC-257; Homo sapiens, UACC-257): 1260 nM
CC50 (UACC-257; Homo sapiens, UACC-257, read-out: LC 50%): 6990 nM
GI 100% (UACC-257; UACC-257, Melanoma): 2.97 µM
GI50 (SK-MEL-5; Homo sapiens, SK-MEL-5): 209 nM
CC50 (SK-MEL-5; Homo sapiens, SK-MEL-5, read-out: LC 50%): 3050 nM
GI 100% (SK-MEL-5; SK-MEL-5, Melanoma): 0.898 µM
GI50 (NCI-H522; Homo sapiens, NCI-H522): 82.9 nM
CC50 (NCI-H522; Homo sapiens, NCI-H522, read-out: LC 50%): 1180 nM
GI 100% (NCI-H522; NCI-H522, Non-small cell lung carcinoma): 0.309 µM
GI 100% (HT29; HT29, Colon Cancer): 1.37 µM
GI50 (HT29; Homo sapiens, HT-29): 322 nM
CC50 (HT29; Homo sapiens, HT-29, read-out: LC 50%): 4100 nM
GI50 (RPMI-8226; Homo sapiens, RPMI-8226): 194 nM
CC50 (RPMI-8226; Homo sapiens, RPMI-8226, read-out: LC 50%): 6980 nM
GI 100% (RPMI-8226; RPMI-8226, Leukemia): 0.889 µM
GI50 (RXF393; Homo sapiens, RXF 393): 181 nM
CC50 (RXF393; Homo sapiens, RXF 393, read-out: LC 50%): 2490 nM
GI 100% (RXF393; RXF393, Renal Cancer): 0.485 µM
GI 100% (A498; A498, Renal Cancer): 1.29 µM
GI50 (A498; Homo sapiens, A498): 268 nM
CC50 (A498; Homo sapiens, A498, read-out: LC 50%): 3850 nM
GI50 (MDA-MB-435; Homo sapiens, MDA-MB-435): 175 nM
CC50 (MDA-MB-435; Homo sapiens, MDA-MB-435, read-out: LC 50%): 3000 nM
GI 100% (MDA-MB-435; MDA-MB-435, Breast Cancer): 0.781 µM
GI 100% (HL-60(TB)): 0.545 µM
degree of selectivity between BJ-TERT/LT/ST/RAS^V12 and BJ-TERT [3]: up to 16 fold
growth inhibitory activity and selectivity in the BJ cell system (in words) ([3]; structural analogs and hits): slightly lower potency and selectivity than the original hit
GI50 (LOX IMVI; Homo sapiens): 203 nM
CC50 (LOX IMVI; Homo sapiens, read-out: LC 50%): 1320 nM
GI 100% (LOX IMVI; Melanoma): 0.478 µM
GI50 (SK-MEL-28; Homo sapiens, SK-MEL-28): 239 nM
CC50 (SK-MEL-28; Homo sapiens, SK-MEL-28, read-out: LC 50%): 2070 nM
GI 100% (SK-MEL-28; SK-MEL-28, Melanoma): 0.592 µM
GI 100% (BT-549; BT-549, Breast Cancer): 1.3 µM
GI50 (BT-549; Homo sapiens, BT-549): 302 nM
CC50 (BT-549; Homo sapiens, BT-549, read-out: LC 50%): 4070 nM
GI50 (OVCAR-8; Homo sapiens, OVCAR-8): 1160 nM
CC50 (OVCAR-8; Homo sapiens, OVCAR-8, read-out: LC 50%): 7480 nM
GI 100% (OVCAR-8; OVCAR-8, Ovarian Cancer): 2.94 µM
GI50 (MALME-3M; Homo sapiens, Malme-3M): 550 nM
CC50 (MALME-3M; Homo sapiens, Malme-3M, read-out: LC 50%): 4570 nM
GI 100% (MALME-3M; MALME-3M, Melanoma): 1.83 µM
GI50 (MDA-MB-231/ATCC; Homo sapiens, MDA-MB-231): 341 nM
CC50 (MDA-MB-231/ATCC; Homo sapiens, MDA-MB-231, read-out: LC 50%): 3270 nM
GI 100% (MDA-MB-231/ATCC; MDA-MB-231/ATCC, Breast Cancer): 1.36 µM
GI 100% (786-0; 786-0, Renal Cancer): 0.907 µM
GI50 (786-0; Homo sapiens, 786-0): 252 nM
CC50 (786-0; Homo sapiens, 786-0, read-out: LC 50%): 3020 nM
